Like-named read-outs stand apart in the source and are kept apart here.

The target of this test is human TRPA1 channel (Homo sapiens (Human), UniProt O75762). The experiment in a line: hTRPA1 CHO Ca2+ FLIPR Tetra assay, block of cinnamaldehyde induced calcium influx. Type of test: cell-based. Conditions: CHO cells expressing TRPA1, Hill coefficient fixed to 1.5. The procedure, abridged:
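Calcium-dye-loaded TRPA1-expressing CHO cells in HBSS/20 mM HEPES pH 7.4, 0.02% BSA were preincubated with compound for 10 or 90 min at room temperature. Calcium influx evoked by roughly an EC50 concentration of cinnamaldehyde was then read on FLIPR Tetra; IC50 came from curve fits with a fixed Hill coefficient.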

[1] abbreviates: read-out: hTRPA1 IC50 (10 min), compounds incubated 10 minutes at room temperature before cinnamaldehyde agonist.
The mark [2] stands for this setting: read-out: hTRPA1 IC50 (90 min), compounds incubated 90 minutes at room temperature before cinnamaldehyde agonist.

Chain of human TRPA1 channel (O75762 whole entry): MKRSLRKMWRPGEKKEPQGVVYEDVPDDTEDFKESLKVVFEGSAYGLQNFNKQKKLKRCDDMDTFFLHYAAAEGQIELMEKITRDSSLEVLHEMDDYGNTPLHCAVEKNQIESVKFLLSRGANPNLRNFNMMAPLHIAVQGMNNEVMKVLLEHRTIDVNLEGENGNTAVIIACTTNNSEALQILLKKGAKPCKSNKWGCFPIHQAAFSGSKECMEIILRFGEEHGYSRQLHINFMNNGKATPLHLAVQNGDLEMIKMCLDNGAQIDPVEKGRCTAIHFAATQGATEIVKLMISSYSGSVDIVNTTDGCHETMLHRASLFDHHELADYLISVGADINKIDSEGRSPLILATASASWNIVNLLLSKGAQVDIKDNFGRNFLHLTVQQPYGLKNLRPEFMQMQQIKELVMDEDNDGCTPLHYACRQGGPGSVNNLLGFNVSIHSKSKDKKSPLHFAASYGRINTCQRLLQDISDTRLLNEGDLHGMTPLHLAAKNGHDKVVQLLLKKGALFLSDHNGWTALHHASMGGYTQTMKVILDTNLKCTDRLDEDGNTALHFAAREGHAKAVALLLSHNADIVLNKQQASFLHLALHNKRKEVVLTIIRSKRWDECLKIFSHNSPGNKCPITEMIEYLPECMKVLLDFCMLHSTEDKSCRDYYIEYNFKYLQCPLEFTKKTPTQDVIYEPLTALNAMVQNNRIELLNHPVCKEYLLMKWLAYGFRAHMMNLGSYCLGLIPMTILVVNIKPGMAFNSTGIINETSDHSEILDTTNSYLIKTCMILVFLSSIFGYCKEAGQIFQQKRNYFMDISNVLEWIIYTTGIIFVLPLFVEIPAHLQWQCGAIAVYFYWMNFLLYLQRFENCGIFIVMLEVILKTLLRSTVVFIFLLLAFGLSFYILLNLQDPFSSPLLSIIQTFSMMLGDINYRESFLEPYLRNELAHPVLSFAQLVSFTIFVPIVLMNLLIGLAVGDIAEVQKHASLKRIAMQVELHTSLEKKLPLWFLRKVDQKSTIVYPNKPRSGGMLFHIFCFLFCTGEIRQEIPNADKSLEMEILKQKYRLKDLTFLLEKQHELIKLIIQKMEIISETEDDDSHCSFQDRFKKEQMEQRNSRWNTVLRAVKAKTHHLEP

Broadly, the IC50 is the concentration at which inhibition is half-maximal. Turning to `Cc1cnn2ncn(Cc3nc([C@H]4[C@@H]5CN(c6cc(Cl)ccn6)C[C@@H]54)no3)c(=O)c12` [Example Compound 138, 3-((3-((1R,5S,6r)-3-(4-chloropyridin-2-yl)-3-azabicyclo[3.1.0]hexan-6-yl)-1,2,4-oxadiazol-5-yl)methyl)-5-methylpyrazolo[5,1-f][1,2,4]triazin-4(3H)-one], the IC50 under setting [1] was 15.1 nM and the IC50 under setting [2] was 5.5 nM.
The matching figures for `Cn1nnc2ncn(Cc3nc([C@H]4[C@@H]5CN(c6cccc(Cl)c6)C[C@@H]54)no3)c(=O)c21` [Example Compound 139, 6-((3-((1R,5S,6r)-3-(3-chlorophenyl)-3-azabicyclo[3.1.0]hexan-6-yl)-1,2,4-oxadiazol-5-yl)methyl)-1-methyl-1,6-dihydro-7H-[1,2,3]triazolo[4,5-d]pyrimidin-7-one]: 10.6 nM and 3.6 nM.
For the compound `Cc1ccc(N2C[C@@H]3[C@H](C2)[C@H]3c2noc(Cn3cnc4ncn(C)c4c3=O)n2)nc1` [Example Compound 140, 7-methyl-1-((3-((1R,5S,6r)-3-(5-methylpyridin-2-yl)-3-azabicyclo[3.1.0]hexan-6-yl)-1,2,4-oxadiazol-5-yl)methyl)-1,7-dihydro-6H-purin-6-one], the IC50 is, setting by setting: under setting [1], 222 nM; under setting [2], 170 nM.
In the case of `Cn1cnc2ncn(Cc3nc([C@H]4[C@@H]5C=C(c6ccc(Cl)cc6)C[C@@H]54)no3)c(=O)c21` [Example Compound 141, 1-((3-((1S,5S,6R)-3-(4-chlorophenyl)bicyclo[3.1.0]hex-2-en-6-yl)-1,2,4-oxadiazol-5-yl)methyl)-7-methyl-1,7-dihydro-6H-purin-6-one], the IC50 came to 9.78 nM under setting [1] and 5.1 nM under setting [2].
The corresponding values for `Cn1cnc2ncn(Cc3nc([C@@H]4[C@H]5C=C(c6ccc(Cl)cc6)C[C@H]54)no3)c(=O)c21` [Example Compound 142, 1-((3-((1R,5R,6S)-3-(4-chlorophenyl)bicyclo[3.1.0]hex-2-en-6-yl)-1,2,4-oxadiazol-5-yl)methyl)-7-methyl-1,7-dihydro-6H-purin-6-one] are 15.2 nM and 12 nM.
As to `Cc1ccnc2ncn(Cc3nc([C@H]4C[C@](F)(c5cccc(F)c5)C4)no3)c(=O)c12` [Example Compound 143, 3-((3-((1s,3s)-3-fluoro-3-(3-fluorophenyl)cyclobutyl)-1,2,4-oxadiazol-5-yl)methyl)-5-methylpyrido[2,3-d]pyrimidin-4(3H)-one], the IC50 reads like this: under setting [1], 33.7 nM; under setting [2], 28 nM.
The matching figures for `Cn1cnc2ncn(Cc3nc([C@H]4[C@@H]5CN(c6cncc(F)c6)C[C@@H]54)no3)c(=O)c21` [Example Compound 144, 1-((3-((1R,5S,6r)-3-(5-fluoropyridin-3-yl)-3-azabicyclo[3.1.0]hexan-6-yl)-1,2,4-oxadiazol-5-yl)methyl)-7-methyl-1,7-dihydro-6H-purin-6-one]: 363 nM and 89 nM.
On to `Cn1cnc2ncn(Cc3nc([C@H]4[C@@H]5CN(c6cncc(C(F)(F)F)c6)C[C@@H]54)no3)c(=O)c21` [Example Compound 145, 7-methyl-1-((3-((1R,5S,6r)-3-(5-(trifluoromethyl)pyridin-3-yl)-3-azabicyclo[3.1.0]hexan-6-yl)-1,2,4-oxadiazol-5-yl)methyl)-1,7-dihydro-6H-purin-6-one], for which the IC50 under setting [1] came out at 797 nM and the IC50 under setting [2] is 480 nM.
Consider `Cn1cnc2ncn(Cc3nc([C@H]4[C@@H]5CN(c6ccnc(Cl)c6)C[C@@H]54)no3)c(=O)c21` [Example Compound 146, 1-((3-((1R,5S,6r)-3-(2-chloropyridin-4-yl)-3-azabicyclo[3.1.0]hexan-6-yl)-1,2,4-oxadiazol-5-yl)methyl)-7-methyl-1,7-dihydro-6H-purin-6-one], for which the IC50 runs as follows: under setting [1], 460 nM; under setting [2], 100 nM.
The matching figures for `O=c1c2cccnc2ncn1Cc1nc([C@H]2C[C@H](Oc3cccc(F)c3)C2)no1` [Example Compound 147, 3-((3-((1r,3r)-3-(3-fluorophenoxy)cyclobutyl)-1,2,4-oxadiazol-5-yl)methyl)pyrido[2,3-d]pyrimidin-4(3H)-one]: 232 nM and 140 nM.
The matching figures for `Cn1cnc2cnn(Cc3nc([C@H]4[C@@H]5CN(c6cc(Cl)ccn6)C[C@@H]54)no3)c(=O)c21` [Example Compound 148, 5-((3-((1R,5S,6r)-3-(4-chloropyridin-2-yl)-3-azabicyclo[3.1.0]hexan-6-yl)-1,2,4-oxadiazol-5-yl)methyl)-3-methyl-3,5-dihydro-4H-imidazo[4,5-d]pyridazin-4-one]: 305 nM and 150 nM.
Take `Cn1nnc2ncn(Cc3nc([C@H]4C[C@](F)(c5ccc(Cl)cc5)C4)no3)c(=O)c21` [Example Compound 149, 6-((3-((1s,3s)-3-(4-chlorophenyl)-3-fluorocyclobutyl)-1,2,4-oxadiazol-5-yl)methyl)-1-methyl-1,6-dihydro-7H-[1,2,3]triazolo[4,5-d]pyrimidin-7-one]: the IC50 by setting is: under setting [1], 253 nM; under setting [2], 160 nM.
The matching figures for `Cn1cnc2ncn(Cc3nc([C@H]4[C@@H]5CN(c6ccc(-c7cnco7)cc6)C[C@@H]54)no3)c(=O)c21` [Example Compound 150, 7-methyl-1-((3-((1R,5S,6r)-3-(4-(oxazol-5-yl)phenyl)-3-azabicyclo[3.1.0]hexan-6-yl)-1,2,4-oxadiazol-5-yl)methyl)-1,7-dihydro-6H-purin-6-one]: 162 nM and 38 nM.
In the case of `O=c1c2cccnc2ncn1Cc1nc([C@H]2[C@@H]3CN(c4ccc(Cl)cn4)C[C@@H]32)no1` [Example Compound 151, 3-((3-((1R,5S,6r)-3-(5-chloropyridin-2-yl)-3-azabicyclo[3.1.0]hexan-6-yl)-1,2,4-oxadiazol-5-yl)methyl)pyrido[2,3-d]pyrimidin-4(3H)one], the IC50 by setting is: under setting [1], 40 nM; under setting [2], 38 nM.
The corresponding values for `O=c1c2cccnc2cnn1Cc1nc([C@H]2[C@@H]3CN(c4ccnc(F)c4)C[C@@H]32)no1` [Example Compound 152, 6-((3-((1R,5S,6r)-3-(2-fluoropyridin-4-yl)-3-azabicyclo[3.1.0]hexan-6-yl)-1,2,4-oxadiazol-5-yl)methyl)pyrido[2,3-d]pyridazin-5(6H)-one] are 58.7 nM and 41 nM.
With `O=c1c2cccnc2cnn1Cc1nc([C@H]2[C@@H]3CN(c4cc(F)ccn4)C[C@@H]32)no1` [Example Compound 153, 6-((3-((1R,5S,6r)-3-(4-fluoropyridin-2-yl)-3-azabicyclo[3.1.0]hexan-6-yl)-1,2,4-oxadiazol-5-yl)methyl)pyrido[2,3-d]pyridazin-5(6H)-one], the IC50 came out at 95.7 nM under setting [1] and 60 nM under setting [2].
The matching figures for `O=c1c2cccnc2ncn1Cc1nc([C@H]2[C@@H]3CN(c4cc(F)ccn4)C[C@@H]32)no1` [Example Compound 154, 3-((3-((1R,5S,6r)-3-(4-fluoropyridin-2-yl)-3-azabicyclo[3.1.0]hexan-6-yl)-1,2,4-oxadiazol-5-yl)methyl)pyrido[2,3-d]pyrimidin-4(3H)-one]: 196 nM and 130 nM.
The corresponding values for `Cn1ncc2ncn(Cc3nc([C@H]4[C@@H]5CN(c6cc(Cl)ccn6)C[C@@H]54)no3)c(=O)c21` [Example Compound 155, 6-((3-((1R,5S,6r)-3-(4-chloropyridin-2-yl)-3-azabicyclo[3.1.0]hexan-6-yl)-1,2,4-oxadiazol-5-yl)methyl)-1-methyl-1,6-dihydro-7H-pyrazolo[4,3-d]pyrimidin-7-one] are 89.3 nM and 73 nM.
The corresponding values for `Cn1cnc2ncn(Cc3nc([C@H]4[C@@H]5CN(C[C@@H](F)c6ccc(Cl)cc6)C[C@@H]54)no3)c(=O)c21` [Example Compound 156, 1-((3-((1R,5S,6S)-3-((S)-2-(4-chlorophenyl)-2-fluoroethyl)-3-azabicyclo[3.1.0]hexan-6-yl)-1,2,4-oxadiazol-5-yl)methyl)-7-methyl-1,7-dihydro-6H-purin-6-one] are 843 nM and 860 nM.
In the case of `O=c1c2cccnc2cnn1Cc1nc([C@H]2C[C@](F)(c3ccc(Cl)cc3)C2)no1` [Example Compound 157, 6-((3-((1s,3s)-3-(4-chlorophenyl)-3-fluorocyclobutyl)-1,2,4-oxadiazol-5-yl)methyl)pyrido[2,3-d]pyridazin-5(6H)-one], the IC50 by setting is: under setting [1], 98.9 nM; under setting [2], 59 nM.
The matching figures for `Cc1cc(C#N)nc2ncn(Cc3nc([C@H]4C[C@](F)(c5ccc(Cl)cc5)C4)no3)c(=O)c12` [Example Compound 158, 3-((3-((1s,3s)-3-(4-chlorophenyl)-3-fluorocyclobutyl)-1,2,4-oxadiazol-5-yl)methyl)-5-methyl-4-oxo-3,4-dihydropyrido[2,3-d]pyrimidine-7-carbonitrile]: 19.4 nM and 10 nM.
Take `Cn1cnc2ncn(Cc3nc([C@@H]4[C@H]5C=C(c6cc(Cl)ccn6)C[C@H]54)no3)c(=O)c21` [Example Compound 159, 1-((3-((1R,5R,6S)-3-(4-chloropyridin-2-yl)bicyclo[3.1.0]hex-2-en-6-yl)-1,2,4-oxadiazol-5-yl)methyl)-7-methyl-1,7-dihydro-6H-purin-6-one]: the IC50 reads like this: under setting [1], 119 nM; under setting [2], 68 nM.
The matching figures for `Cn1cnc2ncn(Cc3nc([C@H]4[C@@H]5C=C(c6cc(Cl)ccn6)C[C@@H]54)no3)c(=O)c21` [Example Compound 160, 1-((3-((1S,5S,6R)-3-(4-chloropyridin-2-yl)bicyclo[3.1.0]hex-2-en-6-yl)-1,2,4-oxadiazol-5-yl)methyl)-7-methyl-1,7-dihydro-6H-purin-6-one]: 91.5 nM and 31 nM.

The values above are taken from patent publication US10711004B2 (Genentech, Inc., priority 2018, dated 2020).
